Patent EP0440324B1, “Substituted beta-diketones and their use in the treatment of inflammatory bowel disease” (ORION-YHTYMÄ OY, priority 1990, dated 1991)

Test system: TNB-induced chronic colitis
Assay: TNB-induced chronic colitis in the rat (damage score of the colon)
Assay type: in vivo, Wistar rats
Details: damage score of chronic inflammation induced by TNB, colons scored 96 h after TNB
Protocol: 20 mg of TNB (2,4,6-trinitrobenzenesulfonic acid) in 50 % ethanol was administered into the lumen of the colon via a rubber catheter inserted rectally to Wistar rats. The test compounds were given rectally 1 h prior and 24, 48, 72 and 95 h after TNB. The rats were sacrificed 96 h after TNB and their colons were scored according to occurence of ulcers and inflammation. The number of animals in each group was at least 8. 5-ASA (5-aminosalicylic acid), a clinically used drug for the treatment of IBD was used as a reference compound.

[1] = dose 30 mg/kg rectally 1 h prior and 24, 48, 72 and 95 h after TNB

Row | Compound | % inhibition against control [1] | also measured
1 | 3-[(5-Nitrothienyl)methylene]-2,4-pentanedione [Example 13] | 58% | 
2 | CC(=O)C(=Cc1ccc(C(=O)NCCc2ccccc2)cc1)C(C)=O [Test compound 9, 3-[(4-(N-phenethyl)carboxamido-phenyl)methylene]-2,4-pentanedione] |  | inhibition in vivo at 10 mg/kg (Rattus norvegicus, dose 10 mg/kg rectally 1 h prior and 24, 48, 72 and 95 h after TNB, read-out: % inhibition against control): 60%; inhibition in vivo at 30 mg/kg (Rattus norvegicus, dose 30 mg/kg rectally 1 h prior and 24, 48, 72 and 95 h after TNB, read-out: % inhibition against control): 48%
3 | 3-[3-(4-Methoxyphenyl)propenylene]-2,4-pentanedione [Example 11] | 32% | 
4 | 3-[(3,5-Dinitro-4-hydroxyphenyl)methylene]-2,4-pentanedione. [Example 9] | 40% | 
5 | Nc1ccc(O)c(C(=O)O)c1 [5-ASA, 5-aminosalicylic acid, reference compound] |  | inhibition in vivo at 100 mg/kg (Rattus norvegicus, dose 100 mg/kg rectally 1 h prior and 24, 48, 72 and 95 h after TNB, read-out: % inhibition against control): 24%
